Test results reported in PubChem BioAssay AID2060617 (Molecular Pharmacology Branch, DTP, NCI, 2025).
pIC50: −log10 of the molar value.

System: 485368-065-R4-J2-PDC spheroids with HUVEC/MSC, viability
Experiment: Anticancer human tumor 485368-065-R4-J2-PDC patient-derived pancreatic carcinoma cell line growth inhibition [CLK]
Settings: for pIC50: curve of first compound; for viability, T/C: stronger effect = lower value
How it was run: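 Patient-derived tumor cells grown as complex spheroids with HUVEC endothelial cells and mesenchymal stem cells, treated with drug combinations. Concentrations descend in half-log steps from near clinical Cmax, or from 10 microM if Cmax unknown.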

[1] = second compound 0.0316 µM, first compound 0.0316 µM
[2] = second compound 0.0316 µM, first compound 0.1 µM
[3] = second compound 0.0316 µM, first compound 0.316 µM
[4] = second compound 0.0316 µM, first compound 1 µM
[5] = second compound 0.0316 µM, first compound 3.16 µM
[6] = second compound 0.0316 µM, first compound 10 µM
[7] = second compound 0.1 µM, first compound 0.0316 µM
[8] = second compound 0.1 µM, first compound 0.1 µM
[9] = second compound 0.1 µM, first compound 0.316 µM
[10] = second compound 0.1 µM, first compound 1 µM
[11] = second compound 0.1 µM, first compound 3.16 µM
[12] = second compound 0.1 µM, first compound 10 µM
[13] = second compound 0.316 µM, first compound 0.0316 µM
[14] = second compound 0.316 µM, first compound 0.1 µM
[15] = second compound 0.316 µM, first compound 0.316 µM
[16] = second compound 0.316 µM, first compound 1 µM
[17] = second compound 0.316 µM, first compound 3.16 µM
[18] = second compound 0.316 µM, first compound 10 µM
[19] = second compound 1 µM, first compound 0.0316 µM
[20] = second compound 1 µM, first compound 0.1 µM
[21] = second compound 1 µM, first compound 0.316 µM
[22] = second compound 1 µM, first compound 1 µM
[23] = second compound 1 µM, first compound 3.16 µM
[24] = second compound 1 µM, first compound 10 µM
[25] = second compound 3.16 µM, first compound 0.0316 µM
[26] = second compound 3.16 µM, first compound 0.1 µM
[27] = second compound 3.16 µM, first compound 0.316 µM
[28] = second compound 3.16 µM, first compound 1 µM
[29] = second compound 3.16 µM, first compound 3.16 µM
[30] = second compound 3.16 µM, first compound 10 µM
[31] = second compound 10 µM, first compound 0.0316 µM
[32] = second compound 10 µM, first compound 0.1 µM
[33] = second compound 10 µM, first compound 0.316 µM
[34] = second compound 10 µM, first compound 1 µM
[35] = second compound 10 µM, first compound 3.16 µM
[36] = second compound 10 µM, first compound 10 µM
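Note: spheroids exposed to compounds for seven days.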
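Throughout, for viability, T/C: 100% = DMSO vehicle control wells.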

For `O=C(c1cc(Cc2n[nH]c(=O)c3ccccc23)ccc1F)N1CCN(C(=O)C2CC2)CC1` + CNC(=O)c1ccc(Nc2nc(OC3CCCC3)c3c(-c4ccc5nc(C)oc5c4)c[nH]c3n2)c(OC)c1, the pIC50 (second compound 0.0316 µM) was less than 5.00, the pIC50 (second compound 0.1 µM) was less than 5.00 and the pIC50 (second compound 0.316 µM) was less than 5.00. For the same compound, the pIC50 (second compound 1 µM) was less than 5.00, the pIC50 (second compound 3.16 µM) was less than 5.00 and the pIC50 (second compound 10 µM) was less than 5.00. It also gave a viability, T/C [1] of 88%, a viability, T/C [2] of 101% and a viability, T/C [3] of 94.5%. For the same compound, the viability, T/C [4] was 102%, the viability, T/C [5] was 106% and the viability, T/C [6] was 100%. The viability, T/C [7] was 97.5%, the viability, T/C [8] was 106% and the viability, T/C [9] was 104%. The viability, T/C [10] was 106%, the viability, T/C [11] was 101% and the viability, T/C [12] was 86.1%. The viability, T/C [13] was 87.9%, the viability, T/C [14] was 91% and the viability, T/C [15] was 91.6%. For the same compound, the viability, T/C [16] was 83.7%, the viability, T/C [17] was 84.3% and the viability, T/C [18] was 81.7%. For the same compound, the viability, T/C [19] was 83.6%, the viability, T/C [20] was 83.3% and the viability, T/C [21] was 86.2%. For the same compound, the viability, T/C [22] was 78.3%, the viability, T/C [23] was 78.8% and the viability, T/C [24] was 71.8%. For the same compound, the viability, T/C [25] was 75.9%, the viability, T/C [26] was 77.6% and the viability, T/C [27] was 72.9%. For the same compound, the viability, T/C [28] was 73.5%, the viability, T/C [29] was 69.6% and the viability, T/C [30] was 68.2%. For the same compound, the viability, T/C [31] was 76.3%, the viability, T/C [32] was 86.9% and the viability, T/C [33] was 77.5%. It also gave a viability, T/C [34] of 76.5%, a viability, T/C [35] of 77.3% and a viability, T/C [36] of 59.3%.

For `C#Cc1c(F)ccc2cc(O)cc(-c3ncc4c(N5CC6CCC(C5)N6)nc(OCC56CCCN5CC(F)C6)nc4c3F)c12` (centres undefined) + CN1CCN(c2cc(C(=O)Nc3cc4cc(-c5cnn(C)c5)ccc4cn3)ccn2)CC1, the pIC50 (second compound 0.0316 µM) was less than 5.00, the pIC50 (second compound 0.1 µM) was less than 5.00 and the pIC50 (second compound 0.316 µM) was 5.01. The pIC50 (second compound 1 µM) was greater than 7.50, the pIC50 (second compound 3.16 µM) was greater than 7.50 and the pIC50 (second compound 10 µM) was greater than 7.50. The viability, T/C [1] was 94.6%, the viability, T/C [2] was 106% and the viability, T/C [3] was 96.7%. For the same compound, the viability, T/C [4] was 116%, the viability, T/C [5] was 107% and the viability, T/C [6] was 117%. For the same compound, the viability, T/C [7] was 112%, the viability, T/C [8] was 115% and the viability, T/C [9] was 96.3%. The viability, T/C [10] was 111%, the viability, T/C [11] was 96% and the viability, T/C [12] was 75.8%. The viability, T/C [13] was 90.3%, the viability, T/C [14] was 90.9% and the viability, T/C [15] was 82.5%. It also gave a viability, T/C [16] of 80.7%, a viability, T/C [17] of 68.6% and a viability, T/C [18] of 49.3%. For the same compound, the viability, T/C [19] was 3.21%, the viability, T/C [20] was 2.21% and the viability, T/C [21] was 1.7%. The viability, T/C [22] was 2.24%, the viability, T/C [23] was 1.78% and the viability, T/C [24] was 1.33%. For the same compound, the viability, T/C [25] was 1.18%, the viability, T/C [26] was 1.09% and the viability, T/C [27] was 1.08%. The viability, T/C [28] was 1.21%, the viability, T/C [29] was 1.29% and the viability, T/C [30] was 1.21%. The viability, T/C [31] was 1.44%, the viability, T/C [32] was 2.45% and the viability, T/C [33] was 1.6%. It also gave a viability, T/C [34] of 1.34%, a viability, T/C [35] of 2.21% and a viability, T/C [36] of 1.87%.
